{"source": "patent US4923888A", "about": "“Butenoic acid amides, their salts, and pharmaceutical compositions containing them” (Richter Gedeon Vegyeszeti Gyar RT, priority 1987, dated 1990)", "key": {"chronic stomach ulcer": {"tested_on": "chronic stomach ulcer", "assay": "acetic acid-induced chronic stomach ulcer model (promoting the healing)", "type": "in vivo, rats", "conditions": "for Ulcer index: ± S.E.M", "method": "The investigation of (the effect promoting the healing of) the chronic stomach ulcer induced by acetic acid was carried out as follows. In the course of examining the healing-promoting effect, one of the most widely used methods namely, the so-called acetic acid-induced chronic stomach ulcer model was used [Takagi et. al.: Jap. […] The abdominal wall of anaesthetized rats was opened and 50 μl of a 20% acetic acid solution were injected into the stomach wall, then the abdominal wall of the animal was sutured. The treatment by the test compounds was started on day 5 following the surgical operation and continued until day 14 by using the daily doses shown in Table 2. Then, the animals were killed and their stomachs were examined. The extent of ulceration was assessed by measuring the diameter of the ulcer, wherefrom the size of the damaged area could be calculated. For characterizing the degree of the cicatrization, the change in the ulcer index measured in the treated animals was related to the values measured in the untreated (control) animals and expressed as percentage values."}, "[1]": {"tested_on": "glandular part of the stomach", "assay": "acid-ethanol test (cytoprotective action, method of A. Robert)", "type": "in vivo, rats", "conditions": "oral; for ED50: Rattus norvegicus, acid-ethanol test, starved rats, read-out: Cytoprotective effect ED50", "from_the_text": "Starved rats were given absolute ethanol containing concentrated hydrochloric acid which induced longitudinal bleedings in the glandular part of the stomach within a short time. This damaging effect is prevented by cytoprotective substances.\nThe oral ED50 values of some compounds according to the invention, which were examined in the acid-ethanol test, are shown in Table 1."}, "oral toxicity": {"assay": "oral toxicity", "type": "in vivo"}, "[2]": {"conditions": "10 × 10 mg/kg/day p.o., Table 2"}, "[3]": {"conditions": "10 × 10 mg/kg/day p.o., P <0.01 vs control (C only)"}, "[4]": {"conditions": "50 × 10 mg/kg/day p.o., Table 3"}}, "data": [{"compound": "Sucralfate [reference compound]", "values": [{"measurement": "Change in the ulcer index related to the control (promotion of the healing)", "setting": "chronic stomach ulcer; 500 × 10 mg/kg/day p.o., Table 3", "value": 55, "unit": "%"}]}, {"compound": "CCOC(=O)C[C@H](NC(=O)/C=C/C(=O)c1ccccc1)C(=O)OCC", "note": "[A, diethyl N-[4-oxo-4-phenyl-2(E)-butenoyl]-(S)-aspartate]", "values": [{"measurement": "healing of the ulcer, result in words", "setting": "chronic stomach ulcer; 40 mg/kg oral dose, statement on Table 2", "value": "not promoted"}, {"measurement": "Change in the ulcer index related to the control (delaying of the healing)", "setting": "chronic stomach ulcer; 40 × 10 mg/kg/day p.o., Table 2", "value": 11, "unit": "%"}, {"measurement": "Ulcer index", "setting": "chronic stomach ulcer; 40 × 10 mg/kg/day p.o.", "value": "13.4 ± 2.1", "unit": "mm^2 /stomach"}, {"measurement": "ED50", "setting": "[1]", "value": 3.8, "unit": "mg/kg"}]}, {"compound": "NC[C@H]1CC[C@H](C(=O)Oc2ccc(CCC(=O)O)cc2)CC1", "note": "[Cetraxate, reference compound]", "values": [{"measurement": "Change in the ulcer index related to the control (promotion of the healing)", "setting": "chronic stomach ulcer; 150 × 10 mg/kg/day p.o., Table 3", "value": 49, "unit": "%"}]}, {"compound": "CCOC(=O)C[C@@H](NC(=O)/C=C/C(=O)c1ccccc1)C(=O)OCC", "note": "[C, diethyl N-[4-oxo-4-phenyl-2(E)-butenoyl]-(R)-aspartate]", "values": [{"measurement": "toxicity, oral dose of 1200 mg/kg", "setting": "oral toxicity", "value": "not toxic"}, {"measurement": "healing of the ulcer accelerated", "setting": "chronic stomach ulcer; 3 mg/kg oral dose, statement on Table 2", "value": 57, "unit": "%"}, {"measurement": "Change in the ulcer index related to the control (delaying of the healing)", "setting": "chronic stomach ulcer; 1 × 10 mg/kg/day p.o., Table 2", "value": 13, "unit": "%"}, {"measurement": "Ulcer index", "setting": "chronic stomach ulcer; 1 × 10 mg/kg/day p.o.", "value": "13.1 ± 3.5", "unit": "mm^2 /stomach"}, {"measurement": "Change in the ulcer index related to the control (promotion of the healing)", "setting": "chronic stomach ulcer; 3 × 10 mg/kg/day p.o., Table 2", "value": 57, "unit": "%"}, {"measurement": "Ulcer index", "setting": "chronic stomach ulcer; 3 × 10 mg/kg/day p.o., P <0.01 vs control", "value": "5.0 ± 1.2", "unit": "mm^2 /stomach"}, {"measurement": "Change in the ulcer index related to the control (promotion of the healing)", "setting": "chronic stomach ulcer; [2]", "value": 77, "unit": "%"}, {"measurement": "Ulcer index", "setting": "chronic stomach ulcer; [3]", "value": "2.7 ± 1.1", "unit": "mm^2 /stomach"}, {"measurement": "healing-promoting effect compared with reference drugs", "setting": "chronic stomach ulcer; R isomer vs reference drugs of Table 3", "value": "greatly exceeds that of the reference drugs"}, {"measurement": "difference between the healing-promoting effects of the R and RS modifications", "setting": "chronic stomach ulcer; statement on Table 2", "value": "highly significant difference"}, {"measurement": "ED50", "setting": "[1]", "value": 1.7, "unit": "mg/kg"}, {"measurement": "cytoprotective test, comparison in words", "setting": "[1]; statement on Table 1", "value": "most effective"}]}, {"compound": "CN/C(=N/CCSCc1nc[nH]c1C)NC#N", "note": "[Cimetidine, reference compound]", "values": [{"measurement": "Change in the ulcer index related to the control (promotion of the healing)", "setting": "chronic stomach ulcer; [4]", "value": 17, "unit": "%"}]}, {"compound": "C[S+](C)CCC(N)C(=O)O", "note": "(stereo not shown) [MMSC, Methylmethionine sulfonium chloride, reference compound]", "values": [{"measurement": "Change in the ulcer index related to the control (promotion of the healing)", "setting": "chronic stomach ulcer; [4]", "value": 59, "unit": "%"}]}, {"compound": "CCOC(=O)CC(NC(=O)/C=C/C(=O)c1ccccc1)C(=O)OCC", "note": "(racemic) [B, diethyl N-[4-oxo-4-phenyl-2(E)-butenoyl]-(RS)-aspartate]", "values": [{"measurement": "Change in the ulcer index related to the control (promotion of the healing)", "setting": "chronic stomach ulcer; [2]", "value": 34, "unit": "%"}, {"measurement": "Ulcer index", "setting": "chronic stomach ulcer; [3]", "value": "7.7 ± 2.8", "unit": "mm^2 /stomach"}, {"measurement": "Change in the ulcer index related to the control (promotion of the healing)", "setting": "chronic stomach ulcer; 30 × 10 mg/kg/day p.o., Table 2", "value": 63, "unit": "%"}, {"measurement": "Ulcer index", "setting": "chronic stomach ulcer; 30 × 10 mg/kg/day p.o., P <0.01 vs control (B)", "value": "4.2 ± 1.8", "unit": "mm^2 /stomach"}, {"measurement": "difference between the healing-promoting effects of the R and RS modifications", "setting": "chronic stomach ulcer; statement on Table 2", "value": "highly significant difference"}, {"measurement": "ED50", "setting": "[1]", "value": 2.6, "unit": "mg/kg"}]}, {"compound": "CN1CCN(CC(=O)N2c3ccccc3C(=O)Nc3cccnc32)CC1", "note": "[Pirenzepine, reference compound]", "values": [{"measurement": "Change in the ulcer index related to the control (promotion of the healing)", "setting": "chronic stomach ulcer; 12 × 10 mg/kg/day p.o., Table 3", "value": 13, "unit": "%"}]}, {"compound": "CC(=O)c1ccc2c(c1)C(=O)C1(CC1)O2", "note": "[Spizofuron, reference compound]", "values": [{"measurement": "Change in the ulcer index related to the control (promotion of the healing)", "setting": "chronic stomach ulcer; [4]", "value": 11, "unit": "%"}]}]}
